From publication PMC3527734, “Peripheral injections of melanin-concentrating hormone receptor 1 antagonist S38151 decrease food intake and body weight in rodent obesity models” (Frontiers in Endocrinology, 2012) come the findings set out here.

Where no end group is shown, it is not given here.

Series [1] has as its system Zucker fa/fa rats. Particulars: cyclophosphamide 100 mg/kg i.p., S38151 20 nmol/kg (28 μg/kg) i.c.v., n = 8. The method, then: These experiments were performed with modifications to previously described methods (Madden et al., [1999]). Rats were individually housed in wire-bottomed plastic cages with free access to both food pellets (6 mm diameter A03 UAR) and kaolin powder. The food pellets were presented in a small porcelain bowl on the floor of the cage. The kaolin powder was presented in a metal feeding dish attached to the inside of the cage. After a 2-week habituation period to these conditions, the animals were randomized into five treatment groups based on the quantity of food eaten during the stabilization period. In addition, those rats that consistently spilled the kaolin powder were eliminated from the study. One day after randomization, the animals were injected just before the beginning of the dark phase with either cyclophosphamide (100 mg/kg, i.p.), or S38151 [20 nmol/kg (28 μg/kg) i.c.v.] or vehicle [(artificial CSF) i.c.v.]. After injection, the quantity of kaolin and food ingested during the following 24-h period was determined. Food or kaolin spilled by the animals was collected at the end of the experiment, and total food and kaolin intake measurements were corrected for this loss.
Figure 5 The effects of S38151 on conditioned taste aversion and pica in Zucker fa/fa rats. (A) In the conditioned taste aversion test, after a period of habituation of the animals to the experimental protocol, Zucker fa/fa rats were presented with 0.2% saccharine for 20 min after drinking water was removed from their cages for 18 h (test day 0). Animals were then injected (i.p.) with vehicle or lithium chloride, or with S38151 (20 nmol/kg, i.c.v). On test days 4, 7, 11, and 14, rats were presented with 0.2% saccharine, and the quantity consumed during a 20-min period was determined. Results are expressed as mean ± SEM (n = 10–11 rats per group). […] (B) In the pica test, Zucker fa/fa rats were injected (i.c.v.) with 20 nmol/kg S38151, or an equivalent volume of artificial cerebrospinal fluid vehicle. Food and kaolin intake during the following 24-h period were each measured. Results are expressed as mean ± SEM (n = 8 rats per group).

Series [2] relates to Zucker fa/fa rats. The experiment in a line: conditioned taste aversion. It counts as in vivo, rat. The following applies: test days 4, 7, 11, 14 versus control; lithium chloride 75 mg/kg i.p.; S38151 20 nmol/kg i.c.v.; n = 10-11.
The next series relates to C57BL/6J mice. In words: daily i.c.v. MCH, food intake and body weight in lean mice. The series is classed as in vivo, mouse. Particulars: n = 10. On the procedure:
(§1) For the MCH daily repeated i.c.v. injection studies, 13-week-old female C57BL/6J and ob/ob mice were used (Harlan, Gannat, France).
(§2) Figure 7 The effect of repeated daily central administration of MCH to lean (C57BL/6J) and obese (ob/ob) mice. C57BL/6J (A and B) and ob/ob (C and D) mice were administered MCH (5 μg/mouse/day) or artificial cerebrospinal fluid vehicle through i.c.v. injections for 5 consecutive days. Results are expressed as mean ± SEM (n = 10 mice per group). […] TEXT PRINTED IN THE PICTURE: (A) MCH: Food Intake/24h (g), C57BL/6J: Δ = 1.3 g | (B) MCH: Δ Body Weight (g), C57BL/6J: Δ = 1.3 g | (C) MCH: Food Intake/24h (g), ob/ob: Δ = 3.2 g | (D) MCH: Δ Body Weight (g), ob/ob: Δ = 2.1 g DOUBTS OF THE COPYIST ABOUT THIS PICTURE: The Δ values are printed beside the curve pairs with no substance label; I assigned them to MCH, reading them as the MCH versus Control difference.

For the next series, the system named is ob/ob mice. In words: daily i.c.v. MCH, food intake and body weight in obese mice. The series is classed as in vivo. Particulars: MCH 5 μg/mouse/day i.c.v. for 5 days, n = 10. The method, then:
as §1, §2

Another series relates to Wistar rats. In words: NEI-MCH-induced food intake after acute i.c.v. injection. The series is classed as in vivo, rat. Particulars: NEI-MCH alone or any combination of NEI-MCH and S38151, i.c.v. An excerpt:
Wistar and Zucker fa/fa rats were anesthetized with Forène (Abbott Laboratories, Queenborough, UK), and a stainless steel guide cannula (Plastic Products Co, Roanoke, Va, USA) was stereotaxically implanted into the right lateral ventricle at the following coordinates relative to the bregma: AP −0.8 mm, L = −1.2 mm, and V = −3.5 mm. After a 7-day recovery period, during which the animals were handled each day to minimize non-specific stress, they were lightly anesthetized with Forène. Human/mouse/rat MCH (1 μg in a volume of 2.5 μ L, Bachem, Voisins-le-Bretonneux, France) or an equivalent volume of artificial cerebrospinal fluid (CSF) was then injected through the intraventricular cannula. Immediately after injection, the animals quickly recovered and were returned to their home cages. Only those animals responding within 2 h with a robust increase in food intake, indicating correct cannula placement, were used in the experiments described below. Two days after MCH injection, the rats were randomly assigned to different groups and studied in one of the following protocols.
Wistar rats were habituated for at least 2 weeks before experiment to a diet of food pellets (6 mm diameter) of the following composition: 67.5% food flour, 26.5% sucrose, 5% gum tragacanth, and 1.25% magnesium stearate (A03 UAR, Orge, France). The food pellets were present in a metal food hopper attached to the inside of each cage. At 09:00 on the day of study, the animals were lightly anesthetized with Forene® (Abbott, France). Thereafter, rats were injected intra-cerebroventricular (i.c.v.) with vehicle (artificial CSF) or with S38151 [0.5, 5, 10, 20, 30, or 50 nmol/kg ([…], 14, 28, 42, or 70 μg/kg, respectively)] in a volume of 2.5 μL, 20 min prior to the injection of human/rat NEI-MCH [5 nmol/kg (18.7 μg/kg) in a volume of 2.5 μL].
Food intake was measured at different times after peptide injection. Food spillage was carefully quantified during each time period, and intake measurements were corrected for this loss. At the end of the experiments, the animals were euthanized and the positions of the cannulae were assessed by the injection of 100 μ L Evans blue dye (2 mg/mL) followed by the visual examination of brain slices. Only data obtained from animals with correctly positioned cannulae were included in the final data analysis.
Figure 3 The effect of S38151 on NEI-MCH-induced food intake in Wistar rats after acute central administration. Satiated rats were injected (i.c.v.) at the beginning of the light phase with 5 μg NEI-MCH, 5 μg NEI-MCH + differing doses of S38151 (0.5–50 nmol/kg), or an equivalent volume of artificial cereblospinal fluid vehicle (5 μL). Cumulative food intake was measured at 1, 2, 4, 6, and 24 h post-injection.

As to `O=P1(N(CCCl)CCCl)NCCCO1` (centres unmarked) [Cyclophosphamide, cyclophosphamide, reference compound], the “kaolin intake, 24 h, pica test” value with Zucker fa/fa rats [1] (vehicle 0.05 ± 0.01 g) is “significant increase”. Moreover, the “food intake, 24 h, pica test” value in the series with Zucker fa/fa rats [1] (vehicle 27 ± 1 g) was “nearly complete suppression”.

Take `[Cl-].[Li+]` [lithium chloride, reference compound]: in the series with Zucker fa/fa rats [2], the 0.2% saccharine consumption result was “significant reduction”.

On to Melanin-concentrating hormone [MCH], for which the “Δ food intake vs. controls, day 5” value with C57BL/6J mice (MCH 5 μg/mouse/day (100 nmol/kg/day) i.c.v. for 5 days) was “+1.3 g”. Moreover, the “Δ body weight vs. controls, day 5” value with C57BL/6J mice (MCH 5 μg/mouse/day i.c.v. for 5 days) is “+1.3 g”. Also, in the series on ob/ob mice, the “Δ body weight vs. controls, after 5 days” value is “+2.1 g” and the “Δ food intake vs. controls, day 5” value is listed as “+3.2 g”.

In the case of “NEI-MCH: stable precursor of melanin-concentrating hormone, human/rat NEI-MCH (EIGDEENSAKFPIGRRDFDMLRCMLGRVYRPCWQV; ends and bridges not checked; cysteine pairing not given here; UniProt P20382 131-165, looked up, fragment) [reference compound]”, the “food intake during the entire 24-h period versus control group” value in the series with Wistar rats was “not significantly altered”.
